Measured values: patent US20120077732A1, “CYCLIC PEPTIDES AND USES THEREOF” (SYDNEY WEST AREA HEALTH SERVICE, priority 2008, published 2012)
Like-named read-outs stand apart in the source and are kept apart here.

Experiments:
allergic mice (OVA/OVA) [1] = assay: Allergic airways disease (OVA) model: airways hyperreactivity to methacholine; assay type: in vivo; parameters: key to Airway Resistance / Airway Compliance: nc: no change; ↑: increase; ↓: decrease; settings: 200 μg/100 μl s.c. during OVA challenge; compared to OVA/OVA alone
allergic mice (OVA/OVA) [2] = assay: Allergic airways disease (OVA) model: inflammatory cells in BALF; assay type: in vivo; parameters: key to Airway lymphocytes / Airway eosinophils / Airway macrophages / Airway inflammatory cells / Airway neutrophils: nc: no change; ↑: increase; ↓: decrease; settings: 200 μg/100 μl s.c. during OVA challenge; compared to OVA/OVA alone
allergic mice (OVA/OVA) [3] = assay: Allergic airways disease (OVA) model: local and systemic OVA-specific cytokine production; assay type: in vivo; parameters: key to Spleen OVA-stimulated IL-5 / Spleen OVA-stimulated IL-13 / LN OVA-stimulated IL-5 / LNOVA stimulated IL-13: nc: no change; ↑: increase; ↓: decrease; settings: 200 μg/100 μl s.c. during OVA challenge; compared to OVA/OVA alone
2B4.11 hybridoma = assay: Antigen presentation assay (IL-2 produced in response to antigen); assay type: cell-based; settings: for % Ave IL2 Production: average, Tables 1-3; for IL2 %: 50 μM, relative to DMSO control (100%); for IL-2 production, % of the solvent only control value: 0.5% DMSO, ±SD
[4] = Surface plasmon resonance binding to DMPC liposomes; settings: SPR, L1 sensor chip, 50 μM, 25° C.
Protocol: (§1) Model membranes composed of zwitterionic and anionic phospholipids were prepared as previously described (Bender et al., 2004). Briefly, DMPC and DMPG were dissolved in dry chloroform and chloroform/methanol (2:1) respectively to give 10 mg/ml solutions. […] The solution was sonicated in an ultrasonic bath for 20 min. Eight cycles of freeze/thawing was followed by extrusion through polycarbonate filters, first 100 nm (21 times) then 50 nm pore diameter (21 times), using a Lipofast apparatus (Avestin, Ottawa, Canada) and SUVs were used immediately. SPR was carried out on a BIAcore 2000 instrument using Pioneer Sensor Chip L1 and HEPES (HBS-N, Biacore, Upssala, Sweden) as running buffer. The chip surface was cleaned with 40 mM octyl glycoside (30 μl, 10 μl/min) followed liposomes (SUV) (100 μl, 5 μl/min). 10 mM NaOH (40 μl, 10 μl/min) removed any multilamellar vesicles from the surface before injecting the lipopeptide solutions (100 μl, 5 μl/min). The dissociation stage was 1200 sec. […] All SPR experiments were run at 25° C. and all analyses were performed using the BIAevaluation software (Biacore, Uppsala, Sweden). Lipopeptide binding was expressed as the difference in signal between points before sample injection and after dissociation.

S. aureus = assay type: cell-based
Protocol: (§2) The synthetic C1 peptide and its analogues were tested using Standard disk susceptibility testing by National Committee for […] Laboratory Standards (NCCLS) against, S. aureus, E. coli and S. pneumoniae. […]

S. pneumoniae = assay: Standard disk susceptibility testing (NCCLS), S. pneumoniae; assay type: cell-based
Protocol: as §2

[5] = Surface plasmon resonance binding to DMPG liposomes; settings: for binding to DMPG (anionic) liposomes: SPR, L1 sensor chip, 50 μM, 25° C.
Protocol: as §1

E. coli = assay: Standard disk susceptibility testing (NCCLS), E. coli; assay type: cell-based
Protocol: as §2

[6] = fifth IL2 column (individual experiment in triplicate)
[7] = fourth IL2 column (individual experiment in triplicate)
[8] = second IL2 column (individual experiment in triplicate)
[9] = third IL2 column (individual experiment in triplicate)
[10] = first IL2 column (individual experiment in triplicate)

C[C@H]1C[C@@H]2[C@H]([C@@H](O)C[C@@]3(C)[C@H]2CC[C@]3(O)C(=O)CO)[C@@]2(C)C=CC(=O)C=C12 [methylprednisolone, reference compound]
Airway Compliance (allergic mice (OVA/OVA) [1]): ↑
Airway Resistance (allergic mice (OVA/OVA) [1]): ↓
Airway eosinophils (allergic mice (OVA/OVA) [2]): ↓
Airway inflammatory cells (allergic mice (OVA/OVA) [2]): ↓
Airway lymphocytes (allergic mice (OVA/OVA) [2]): nc
Airway macrophages (allergic mice (OVA/OVA) [2]): ↓
Airway neutrophils (allergic mice (OVA/OVA) [2]): ↓
LN OVA-stimulated IL-5 (allergic mice (OVA/OVA) [3]): nc
LNOVA stimulated IL-13 (allergic mice (OVA/OVA) [3]): nc
Spleen OVA-stimulated IL-5 (allergic mice (OVA/OVA) [3]): ↓
Spleen OVA-stimulated IL-13 (allergic mice (OVA/OVA) [3]): ↓

LDLLDLLDRLDKVDG (cyclo(LDLLDLLDRLDKVDG); ring closure inferred; not fully specified) [C8]
% Ave IL2 Production (2B4.11 hybridoma): 33%
IL2 % (2B4.11 hybridoma; [6]): 17.4%
IL2 % (2B4.11 hybridoma; [7]): 20.2%
IL2 % (2B4.11 hybridoma; [8]): 35%
IL2 % (2B4.11 hybridoma; [9]): (61.2) %

RDLLDLLDLLDKVDG [C7]
% Ave IL2 Production (2B4.11 hybridoma): 49%
IL2 % (2B4.11 hybridoma; [6]): 76.4%
IL2 % (2B4.11 hybridoma; [10]): 29%
IL2 % (2B4.11 hybridoma; [7]): 71%
IL2 % (2B4.11 hybridoma; [8]): 15.4%
IL2 % (2B4.11 hybridoma; [9]): 54%

LDRLDLLDKLDKVDG (cyclo(LDRLDLLDKLDKVDG); ring closure inferred; not fully specified) [C3, cyclic peptide 3]
binding to DMPC (zwitterionic) liposomes [4]: no binding at all
antimicrobial activity, S. aureus (S. aureus; peptide 100 μg/ml): −ve
antimicrobial activity, S. aureus (S. aureus; peptide 1000 μg/ml): −ve
antimicrobial activity, S. pneumoniae (S. pneumoniae; peptide 100 μg/ml): −ve
antimicrobial activity, S. pneumoniae (S. pneumoniae; peptide 1000 μg/ml): −ve
% Ave IL2 Production (2B4.11 hybridoma): 95%
IL-2 production, % of the solvent only control value (2B4.11 hybridoma; peptide 50 μM): 91.69%±25.86
binding to DMPG (anionic) liposomes [5]: no binding at all
antimicrobial activity, E. coli (E. coli; peptide 100 μg/ml): −ve
antimicrobial activity, E. coli (E. coli; peptide 1000 μg/ml): −ve

LDRLDLLDLLDRVDG [C4]
binding to DMPC (zwitterionic) liposomes [4]: no binding at all
antimicrobial activity, S. aureus (S. aureus; peptide 10 μg/ml): −ve
antimicrobial activity, S. aureus (S. aureus; peptide 100 μg/ml): −ve
antimicrobial activity, S. aureus (S. aureus; peptide 1000 μg/ml): −ve
antimicrobial activity, S. pneumoniae (S. pneumoniae; peptide 10 μg/ml): −ve
antimicrobial activity, S. pneumoniae (S. pneumoniae; peptide 100 μg/ml): −ve
antimicrobial activity, S. pneumoniae (S. pneumoniae; peptide 1000 μg/ml): −ve
% Ave IL2 Production (2B4.11 hybridoma): 72%
IL-2 production, % of the solvent only control value (2B4.11 hybridoma; peptide 50 μM): 74.54%±11.22
binding to DMPG (anionic) liposomes [5]: no binding at all
antimicrobial activity, E. coli (E. coli; peptide 10 μg/ml): −ve
antimicrobial activity, E. coli (E. coli; peptide 100 μg/ml): −ve
antimicrobial activity, E. coli (E. coli; peptide 1000 μg/ml): −ve

LDRLDKKDKLDKVDG (cyclo(LDRLDKKDKLDKVDG); ring closure inferred; not fully specified) [C12]
% Ave IL2 Production (2B4.11 hybridoma): 27%
IL2 % (2B4.11 hybridoma; [6]): 24%
IL2 % (2B4.11 hybridoma; [10]): 9.0%
IL2 % (2B4.11 hybridoma; [7]): 33.7%
IL2 % (2B4.11 hybridoma; [8]): 21%
IL2 % (2B4.11 hybridoma; [9]): (49) %

LDKLDKLDKLDKVDG [C2]
binding to DMPC (zwitterionic) liposomes [4]: only very limited binding
antimicrobial activity, S. aureus (S. aureus; peptide 10 μg/ml): −ve
antimicrobial activity, S. aureus (S. aureus; peptide 100 μg/ml): −ve
antimicrobial activity, S. aureus (S. aureus; peptide 1000 μg/ml): −ve
antimicrobial activity, S. pneumoniae (S. pneumoniae; peptide 10 μg/ml): −ve
antimicrobial activity, S. pneumoniae (S. pneumoniae; peptide 100 μg/ml): −ve
antimicrobial activity, S. pneumoniae (S. pneumoniae; peptide 1000 μg/ml): −ve
% Ave IL2 Production (2B4.11 hybridoma): 22%
IL-2 production, % of the solvent only control value (2B4.11 hybridoma; peptide 25 μM): 58.74%±7.63
IL-2 production, % of the solvent only control value (2B4.11 hybridoma; peptide 50 μM): 24.51%±8.81
binding to the anionic liposome ([5]; SPR sensorgram): 3000 RU
antimicrobial activity, E. coli (E. coli; peptide 10 μg/ml): −ve
antimicrobial activity, E. coli (E. coli; peptide 100 μg/ml): −ve
antimicrobial activity, E. coli (E. coli; peptide 1000 μg/ml): −ve

CO/N=C(\C(=O)N[C@@H]1C(=O)N2C(C(=O)O)=C(COC(C)=O)CS[C@H]12)c1csc(N)n1 [Ceforaxime, reference compound]
antimicrobial activity, S. aureus (S. aureus; 30 μg/ml): −ve
antimicrobial activity, S. pneumoniae (S. pneumoniae; 30 μg/ml): −ve
antimicrobial activity, E. coli (E. coli; 30 μg/ml): +ve

LDRLDLLDKVDG [8AA]
% Ave IL2 Production (2B4.11 hybridoma): 72%

LDLLDRLDLLDKVDG (cyclo(LDLLDRLDLLDKVDG); ring closure inferred; not fully specified) [C6]
% Ave IL2 Production (2B4.11 hybridoma): 99%
IL2 % (2B4.11 hybridoma; [10]): 104.5%
IL2 % (2B4.11 hybridoma; [8]): 104%
IL2 % (2B4.11 hybridoma; [9]): 89%

LDRLDKVDG (cyclo(LDRLDKVDG); ring closure inferred; not fully specified) [6AA]
% Ave IL2 Production (2B4.11 hybridoma): 35%
IL2 % (2B4.11 hybridoma; [6]): 44.3%
IL2 % (2B4.11 hybridoma; [10]): 9.0%
IL2 % (2B4.11 hybridoma; [7]): 33.7%
IL2 % (2B4.11 hybridoma; [8]): 36.5%
IL2 % (2B4.11 hybridoma; [9]): (52) %

LDRLDKLDKLDKVDG (cyclo(LDRLDKLDKLDKVDG); ring closure inferred; not fully specified) [C10]
% Ave IL2 Production (2B4.11 hybridoma): 59%
IL2 % (2B4.11 hybridoma; [6]): 64.1%
IL2 % (2B4.11 hybridoma; [7]): 54%

LDRLDKLDLLDKVDG (cyclo(LDRLDKLDLLDKVDG); ring closure inferred; not fully specified) [C9]
% Ave IL2 Production (2B4.11 hybridoma): 25%
IL2 % (2B4.11 hybridoma; [6]): 16.9%
IL2 % (2B4.11 hybridoma; [7]): 6.75%
IL2 % (2B4.11 hybridoma; [8]): 11.5%
IL2 % (2B4.11 hybridoma; [9]): (65.3) %

LDKLDKKDKLDKVDG (cyclo(LDKLDKKDKLDKVDG); ring closure inferred; not fully specified) [C11]
% Ave IL2 Production (2B4.11 hybridoma): 96%
IL2 % (2B4.11 hybridoma; [8]): 88.5%
IL2 % (2B4.11 hybridoma; [9]): 104%

LDKLDLLDLLDKVDG (cyclo(LDKLDLLDLLDKVDG); ring closure inferred; not fully specified) [C5]
% Ave IL2 Production (2B4.11 hybridoma): 78%
IL2 % (2B4.11 hybridoma; [10]): 73.6%
IL2 % (2B4.11 hybridoma; [8]): 75%
IL2 % (2B4.11 hybridoma; [9]): 85.4%

Cc1onc(-c2ccccc2)c1C(=O)N[C@@H]1C(=O)N2[C@@H]1SC(C)(C)[C@@H]2C(=O)O [Oxacillin, reference compound]
antimicrobial activity, S. aureus (S. aureus; 1 μg/ml): +ve
antimicrobial activity, S. pneumoniae (S. pneumoniae; 1 μg/ml): +ve
antimicrobial activity, E. coli (E. coli; 1 μg/ml): −ve
